The EC50 is the concentration needed to bring the measured effect to its halfway point.

A value given as a limit tells only on which side of the number the result lay.

Among the data in patent US9828381B2, “Substituted pyrazolopyrimidines and method of use” (AbbVie Deutschland GmbH & Co. KG, priority 2015, dated 2017) are EC50 values, retold here.

Sequence of GABA-B receptor (Q9Z0U4 17-960): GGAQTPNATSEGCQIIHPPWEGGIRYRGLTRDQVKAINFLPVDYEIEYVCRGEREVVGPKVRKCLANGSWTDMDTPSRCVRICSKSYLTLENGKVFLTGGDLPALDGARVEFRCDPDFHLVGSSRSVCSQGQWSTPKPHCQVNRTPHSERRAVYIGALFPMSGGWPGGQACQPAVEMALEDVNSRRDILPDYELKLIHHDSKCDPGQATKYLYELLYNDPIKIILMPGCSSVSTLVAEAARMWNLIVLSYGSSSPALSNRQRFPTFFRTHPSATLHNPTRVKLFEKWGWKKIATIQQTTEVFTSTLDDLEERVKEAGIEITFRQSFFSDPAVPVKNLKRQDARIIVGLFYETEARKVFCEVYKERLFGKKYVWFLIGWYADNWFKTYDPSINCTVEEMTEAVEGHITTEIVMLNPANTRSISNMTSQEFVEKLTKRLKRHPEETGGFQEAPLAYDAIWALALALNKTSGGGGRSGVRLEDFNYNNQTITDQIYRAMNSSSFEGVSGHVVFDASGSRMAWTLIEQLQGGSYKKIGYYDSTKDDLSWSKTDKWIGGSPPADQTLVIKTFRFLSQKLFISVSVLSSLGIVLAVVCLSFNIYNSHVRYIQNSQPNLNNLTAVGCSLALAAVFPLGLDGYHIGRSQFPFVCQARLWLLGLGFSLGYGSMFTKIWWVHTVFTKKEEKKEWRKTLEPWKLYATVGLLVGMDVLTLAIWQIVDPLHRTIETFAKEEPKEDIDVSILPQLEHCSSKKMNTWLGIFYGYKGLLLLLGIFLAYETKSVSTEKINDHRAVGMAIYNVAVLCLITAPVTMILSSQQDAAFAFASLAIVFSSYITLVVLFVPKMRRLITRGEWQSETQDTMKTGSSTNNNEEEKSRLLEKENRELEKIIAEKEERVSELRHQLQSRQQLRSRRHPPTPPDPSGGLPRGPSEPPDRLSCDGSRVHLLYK
Sequence of GABA-B receptor (O88871 41-940): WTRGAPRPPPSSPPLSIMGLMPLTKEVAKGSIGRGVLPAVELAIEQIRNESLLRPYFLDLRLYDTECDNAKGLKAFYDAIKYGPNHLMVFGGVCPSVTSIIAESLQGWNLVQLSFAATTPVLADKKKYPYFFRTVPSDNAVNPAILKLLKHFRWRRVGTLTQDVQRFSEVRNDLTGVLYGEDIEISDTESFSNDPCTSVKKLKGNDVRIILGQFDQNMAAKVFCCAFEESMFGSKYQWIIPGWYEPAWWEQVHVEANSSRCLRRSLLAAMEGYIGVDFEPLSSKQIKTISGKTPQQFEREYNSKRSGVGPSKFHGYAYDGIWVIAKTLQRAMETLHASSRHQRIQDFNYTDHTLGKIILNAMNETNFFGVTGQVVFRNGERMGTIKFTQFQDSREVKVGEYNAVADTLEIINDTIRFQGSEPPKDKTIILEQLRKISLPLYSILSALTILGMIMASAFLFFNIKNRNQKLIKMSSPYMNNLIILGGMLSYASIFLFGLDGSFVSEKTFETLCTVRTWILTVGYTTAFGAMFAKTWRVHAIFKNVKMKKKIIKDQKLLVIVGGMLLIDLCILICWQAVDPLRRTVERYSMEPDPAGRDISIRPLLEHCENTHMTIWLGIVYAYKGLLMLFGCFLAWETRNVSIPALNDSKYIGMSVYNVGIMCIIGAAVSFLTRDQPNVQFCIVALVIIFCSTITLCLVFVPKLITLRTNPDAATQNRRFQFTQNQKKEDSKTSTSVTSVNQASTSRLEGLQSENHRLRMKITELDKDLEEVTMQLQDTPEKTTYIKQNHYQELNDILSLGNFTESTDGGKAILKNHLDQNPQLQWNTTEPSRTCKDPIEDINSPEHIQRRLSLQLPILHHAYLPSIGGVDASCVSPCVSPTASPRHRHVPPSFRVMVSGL

This experiment has as its target GABA-B receptor (Rattus norvegicus (Rat), UniProt O88871+Q9Z0U4). The experiment in a line: [35S]GTPgS binding assay, rat cortical membranes, in presence of EC25 GABA. Type of experiment: biochemical. The conditions noted are these: rat brain cortex membranes; in presence of 1 μM GABA (EC25); positive allosteric modulation. The essentials:
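Rat cortical membranes (10 µg) in Tris-HCl pH 7.7 with Mg2+, Ca2+, NaCl, EGTA and 20 µM GDP, plus 0.3 nM [35S]GTPγS and 1 µM GABA (EC25), were incubated with compound (10 nM–10 µM) 60 min at room temperature. Filter-bound counts were normalised basal 0%, 1 mM GABA 100%; EC50 from sigmoidal fit.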
On the technique in general: Binding of GTPγS marks nucleotide exchange on a G protein.
As to `Cc1cc(NC2CC(F)(F)C2)n2nc(C(C)c3ccc(C(F)(F)F)cc3)cc2n1` (centres unmarked) [Example 8-20, N-(3,3-difluorocyclobutyl)-5-methyl-2-{1-[4-(trifluoromethyl)phenyl]ethyl}pyrazolo[1,5-a]pyrimidin-7-amine], the EC50 is 0.5 µM.

For the molecule `Cc1cc(N2CCC3(CC2)COC3)n2nc(C(C)c3ccc(C(F)(F)F)cc3)cc2n1` (centres unmarked) [Example 8-21, 5-methyl-7-(2-oxa-7-azaspiro[3.5]non-7-yl)-2-{1-[4-(trifluoromethyl)phenyl]ethyl}pyrazolo[1,5-a]pyrimidine], the EC50 came to 0.561 µM.

As to `Cc1cc(N2CCC(C(N)=O)C2)n2nc(C(C)c3ccc(C(F)(F)F)cc3)cc2n1` (centres unmarked) [Example 8-22, 1-(5-methyl-2-{1-[4-(trifluoromethyl)phenyl]ethyl}pyrazolo[1,5-a]pyrimidin-7-yl)pyrrolidine-3-carboxamide], the 50% effective concentration (EC50) stood at 0.771 µM.

As for `Cc1cc(N2CCCC(CO)C2)n2nc(C(C)c3ccc(Cl)cn3)cc2n1` (centres unmarked) [Example 9-1, (1-{2-[1-(5-chloropyridin-2-yl)ethyl]-5-methylpyrazolo[1,5-a]pyrimidin-7-yl}piperidin-3-yl)methanol], the EC50 was determined as 1.54 µM.

Turning to `Cc1cc(NC2CC(F)(F)C2)n2nc(C(C)c3ccc(Cl)cn3)cc2n1` (centres unmarked) [Example 9-2, 2-[1-(5-chloropyridin-2-yl)ethyl]-N-(3,3-difluorocyclobutyl)-5-methylpyrazolo[1,5-a]pyrimidin-7-amine], the EC50 is 1.6 µM.

Take `Cc1cc(N2CCC[C@H](O)C2)n2nc(C(C)c3ccc(Cl)cn3)cc2n1` (stereo partly drawn) [Example 9-3, (3S)-1-{2-[1-(5-chloropyridin-2-yl)ethyl]-5-methylpyrazolo[1,5-a]pyrimidin-7-yl}piperidin-3-ol]: the concentration for a half-maximal effect (EC50) worked out at 2.02 µM.

For the molecule `Cc1cc(N2CCCC(F)(F)C2)n2nc(C(C)c3ccc(Cl)cn3)cc2n1` (centres unmarked) [Example 9-4, 2-[1-(5-chloropyridin-2-yl)ethyl]-7-(3,3-difluoropiperidin-1-yl)-5-methylpyrazolo[1,5-a]pyrimidine], the EC50 was found to be 0.628 µM.

As for `Cc1cc(N2CCC(F)(F)C2)n2nc(C(C)c3ccc(Cl)cn3)cc2n1` (centres unmarked) [Example 9-5, 2-[1-(5-chloropyridin-2-yl)ethyl]-7-(3,3-difluoropyrrolidin-1-yl)-5-methylpyrazolo[1,5-a]pyrimidine], the half-maximal effective concentration (EC50) was found to be 1.66 µM.

Regarding `Cc1cc(NC(C)(C)C)n2nc(C(C)c3ccc(Cl)cn3)cc2n1` (centres unmarked) [Example 9-6, N-tert-butyl-2-[1-(5-chloropyridin-2-yl)ethyl]-5-methylpyrazolo[1,5-a]pyrimidin-7-amine], the EC50 worked out at 0.798 µM.

As for `Cc1cc(NC2(C)CC2)n2nc(C(C)c3ccc(Cl)cn3)cc2n1` (centres unmarked) [Example 9-7, 2-[1-(5-chloropyridin-2-yl)ethyl]-5-methyl-N-(1-methylcyclopropyl)pyrazolo[1,5-a]pyrimidin-7-amine], the EC50 stood at 1.32 µM.

Take `Cc1cc(NC2CC(F)C2)n2nc(C(C)c3ccc(Cl)cn3)cc2n1` (centres unmarked) [Example 9-8, 2-[1-(5-chloropyridin-2-yl)ethyl]-N-(3-fluorocyclobutyl)-5-methylpyrazolo[1,5-a]pyrimidin-7-amine]: the EC50 worked out at 9.3 µM.

Turning to `Cc1cc(N2CC3(CCOCC3)C2)n2nc(C(C)c3ccc(Cl)cn3)cc2n1` (centres unmarked) [Example 9-9, 2-[1-(5-chloropyridin-2-yl)ethyl]-5-methyl-7-(7-oxa-2-azaspiro[3.5]non-2-yl)pyrazolo[1,5-a]pyrimidine], the half-maximal effective concentration (EC50) is > 10 µM.

Take `CC(=O)N[C@@H]1CCN(c2cc(C)nc3cc(C(C)c4ccc(Cl)cn4)nn23)C1` (stereo partly drawn) [Example 9-10, N-[(3R)-1-{2-[1-(5-chloropyridin-2-yl)ethyl]-5-methylpyrazolo[1,5-a]pyrimidin-7-yl}pyrrolidin-3-yl]acetamide]: the EC50 is > 10 µM.

`CC(=O)N[C@H]1CCN(c2cc(C)nc3cc(C(C)c4ccc(Cl)cn4)nn23)C1` (stereo partly drawn) [Example 9-11, N-[(3S)-1-{2-[1-(5-chloropyridin-2-yl)ethyl]-5-methylpyrazolo[1,5-a]pyrimidin-7-yl}pyrrolidin-3-yl]acetamide]: the EC50 is > 10 µM.

`Cc1cc(N2CC[C@@H](NS(C)(=O)=O)C2)n2nc(Cc3ccc(Cl)cc3)cc2n1` [Example 10-1, N-{(3R)-1-[2-(4-chlorobenzyl)-5-methylpyrazolo[1,5-a]pyrimidin-7-yl]pyrrolidin-3-yl}methanesulfonamide]: the half-maximal effective concentration (EC50) is > 10 µM.

In the case of `Cc1cc(N2CCC[C@H](NS(C)(=O)=O)C2)n2nc(Cc3ccc(Cl)cc3)cc2n1` [Example 11-1], the EC50 was determined as 3.51 µM.

As for `Cc1cc(N2CCCCC2CCO)n2nc(Cc3cccc(Cl)c3)cc2n1` (centres unmarked) [Example 12-1, 2-{1-[2-(3-chlorobenzyl)-5-methylpyrazolo[1,5-a]pyrimidin-7-yl]piperidin-2-yl}ethanol], the half-maximal effective concentration (EC50) was 5.67 µM.
